Earlier results, collected in patent US12702587B2, “Ophthalmic device” (aVISI Ltd., priority 2020, dated 2026).
Structures can show the parent of a compound that is named as a salt.

Settings: from chitosan nanoparticles; phosphate buffer saline of pH 7.4; in vitro

CC(C)(C)NC[C@H](O)COc1nsnc1N1CCOCC1 [timolol maleate]
release of timolol maleate (duration of slow release): up to 24 hours
